The values below come from DBAASP.

≈ marks a conversion by molar mass, not a printed value. Where “and” joins values, the source holds several entries; their conditions need not be identical. Equal entries are not always repeated. Some results are limits rather than exact numbers.

Common to all, as to experiment: ≥ marks a high value that may be exact or a test limit, other limits are often not marked, values filed in µg/mL are converted to µM
In assay [1] the test system is Escherichia coli ATCC 10536.
Assay [2] deals with Staphylococcus aureus ATCC 9144.
Assay [3] has as its system Escherichia coli DH5alpha.
The subject of assay [4] is Staphylococcus aureus ATCC 43300.
The test system of assay [5] is Escherichia coli ATCC 25404.
The test system of assay [6] is Escherichia coli O157.
In assay [7] the test system is Staphylococcus epidermidis ATCC 9709.
Assay [8] relates to Salmonella typhimurium.
Assay [9] deals with Micrococcus luteus ATCC 10420.
Assay [10] deals with Listeria monocytogenes.
Assay [11] deals with Staphylococcus aureus ATCC 29213.
The test system of assay [12] is Enterococcus faecalis ATCC 19433.
The subject of assay [13] is Staphylococcus aureus ATCC 25923.
The subject of assay [14] is Mycobacterium tuberculosis H37Rv.
The subject of assay [15] is Staphylococcus aureus.
Assay [16] relates to Pseudomonas aeruginosa.
In assay [17] the test system is Candida albicans ATCC 90028.
For assay [18], the system named is Klebsiella pneumoniae ATCC 700603.
In assay [19] the test system is Escherichia coli ATCC 25726.
The subject of assay [20] is Staphylococcus aureus 127/08.
For assay [21], the system named is Stenotrophomonas maltophilia B32/4.
Assay [22] deals with Stenotrophomonas maltophilia B32/1.
The subject of assay [23] is Acinetobacter baumannii NM8.
In assay [24] the test system is Pseudomonas aeruginosa ATCC 27853.
Assay [25] relates to Staphylococcus capitis 1.
Assay [26] concerns Bacillus megaterium Bm11.
The test system of assay [27] is Staphylococcus aureus Cowan 1.
Assay [28] deals with Yersinia pseudotuberculosis YPIII.
The test system of assay [29] is Escherichia coli ATCC 25922.
In assay [30] the test system is Candida albicans ATCC 10231.
In assay [31] the test system is Escherichia coli ATCC 11775.
Assay [32] relates to Botrytis cinerea.
Assay [33] concerns Staphylococcus aureus ATCC 12600.
Assay [34] has as its system Enterobacter cloacae 2524.
Assay [35] deals with Acinetobacter baumannii.
In assay [36] the test system is Klebsiella pneumoniae 913.
In assay [37] the test system is Pseudomonas aeruginosa 4677.
Assay [38] concerns Enterobacter cloacae 6780.
Assay [39] has as its system Escherichia coli 170.

For orientation: MIC means the smallest concentration in the dilution series that meets the test's criterion for growth inhibition. Take `CC[C@H](C)[C@H](NC(=O)[C@@H](NC(=O)[C@@H]1CCCN1C(=O)[C@H](CO)NC(=O)[C@H](C)NC(=O)[C@H](CCCCN)NC(=O)[C@H](CCCCN)NC(=O)[C@H](Cc1ccccc1)NC(=O)[C@H](C)NC(=O)[C@H](CCCCN)NC(=O)[C@H](CCCCN)NC(=O)[C@H](Cc1ccccc1)NC(=O)[C@H](CCCCN)NC(=O)[C@H](CCCCN)NC(=O)[C@H](CCCN=C(N)N)NC(=O)[C@H](Cc1ccccc1)NC(=O)[C@H](CCCN=C(N)N)NC(=O)[C@H](CCCCN)NC(=O)[C@H](Cc1ccccc1)NC(=O)[C@H](CCCN=C(N)N)NC(=O)CN)C(C)C)C(=O)N1CCC[C@H]1C(=O)N[C@@H](CC(C)C)C(=O)N[C@@H](CC(C)C)C(=O)N[C@@H](Cc1cnc[nH]1)C(=O)N[C@@H](CC(C)C)C(N)=O` [GRFKRFRKKFKKAFKKASPVIPLLHL]: the MIC was 2.7 µM and 7.2 µM in assay [1]; 2.7 µM (≈ 8.48 µg/mL) in [2]; 2.9 µM (≈ 9.11 µg/mL) in assay [3].

As for `CC(C)C[C@H](NC(=O)[C@H](CC(C)C)NC(=O)[C@H](Cc1cnc[nH]1)NC(=O)[C@H](CO)NC(=O)[C@H](CC(C)C)NC(=O)[C@H](C)NC(=O)[C@H](CCCCN)NC(=O)[C@H](Cc1ccccc1)NC(=O)[C@H](CC(C)C)NC(=O)[C@H](C)NC(=O)CNC(=O)[C@H](CC(C)C)NC(=O)[C@@H](N)Cc1ccccc1)C(=O)O` [FLGALFKALSHLL], the MIC is 4 µM (≈ 5.72 µg/mL) in assay [4]; ≥ 64 µM in assay [5]; ≥ 64 µM in [6]; 8 µM (≈ 11.4 µg/mL) in assay [7]; ≥ 64 µM in [8]; 8 µM (≈ 11.4 µg/mL) in [9]. Further, the minimal inhibitory concentration (MIC) in assay [10] and in assay [11] was 8 µM (≈ 11.4 µg/mL) in each case.

In the case of `CC[C@H](C)[C@H](NC(=O)[C@H](CCCN=C(N)N)NC(=O)[C@H](Cc1c[nH]c2ccccc12)NC(=O)[C@@H](NC(=O)[C@@H](NC(=O)[C@H](CC(C)C)NC(=O)[C@H](Cc1c[nH]c2ccccc12)NC(=O)[C@H](CCCN=C(N)N)NC(=O)[C@H](CCC(N)=O)NC(=O)[C@@H](N)C(C)C)[C@@H](C)CC)C(C)C)C(=O)N[C@@H](CCCN=C(N)N)C(=O)N[C@@H](CCCCN)C(N)=O` [VQRWLIVWRIRK], the MIC is ≥ 38.7 µM in assay [12]; 77.4 µM (≈ 128 µg/mL) in assay [13]; 17.7 µM (≈ 29.3 µg/mL) in assay [14]; 3.02 µM (≈ 5 µg/mL) in assay [15]; 11.5 µM (≈ 19 µg/mL) in assay [16].

For the compound `CC[C@H](C)[C@@H]1NC(=O)[C@H](CCCCN)NC(=O)[C@@H](NC(=O)[C@H](C)NC(=O)[C@@H](NC(=O)[C@H](CC(C)C)NC(=O)[C@H](CC(=O)O)NC(=O)[C@@H](NC(=O)CNC(=O)[C@H](CC(C)C)NC(=O)[C@H](CCCCN)NC(=O)[C@H](C)NC(=O)[C@H](CC(C)C)NC(=O)[C@H](CC(=O)O)NC(=O)[C@H](CCCCN)NC(=O)CNC(=O)[C@H](CC(C)C)NC(=O)CNC(=O)[C@H](CCCCN)NC(=O)[C@H](CO)NC(=O)[C@H](C)NC(=O)[C@H](Cc2ccccc2)NC(=O)[C@H](CCCCN)NC(=O)[C@H](C)NC(=O)[C@@H](NC(=O)CNC(=O)[C@H](CCCN=C(N)N)NC(=O)[C@H](Cc2ccccc2)NC(=O)[C@@H](NC(=O)[C@H](CO)NC(=O)[C@H](CO)NC(=O)[C@H](Cc2ccccc2)NC(=O)CN)[C@@H](C)CC)C(C)C)C(C)C)C(C)C)CSSC[C@@H](C(=O)O)NC(=O)[C@H](CCC(N)=O)NC(=O)[C@H](CCCCN)NC(=O)[C@H](CO)NC1=O` [GFSSIFRGVAKFASKGLGKDLAKLGVDLVACKISKQC], the MIC amounted to 10 µM (≈ 38.4 µg/mL) in [17]; 5 µM (≈ 19.2 µg/mL) in [18]; 5 µM (≈ 19.2 µg/mL) in assay [19]; 6 µM (≈ 23 µg/mL) in assay [20]; 3 µM (≈ 11.5 µg/mL) in assay [21]; 6 µM (≈ 23 µg/mL) in assay [22]. Further, the minimal inhibitory concentration (MIC) in assay [13] came to 5 µM (≈ 19.2 µg/mL); in assay [23], 6 µM (≈ 23 µg/mL); in assay [24] it was 5 µM (≈ 19.2 µg/mL).

Regarding `CC[C@H](C)[C@H](NC(=O)[C@H](CC(C)C)NC(=O)[C@@H]1CCCN1C(=O)[C@H](CC(C)C)NC(=O)[C@@H](N)Cc1ccccc1)C(=O)NCC(=O)N[C@@H](CCCN=C(N)N)C(=O)N[C@H](C(=O)N[C@@H](CC(C)C)C(=O)N[C@@H](CO)C(=O)NCC(=O)N[C@@H](C)C(=O)N[C@@H](CC(C)C)C(N)=O)C(C)C` [FLPLIGRVLSGAL], the minimal inhibitory concentration (MIC) in assay [25] was ≥ 40 µM; in assay [26] it was 20 µM (≈ 27.1 µg/mL); in [27], ≥ 40 µM; in [28], ≥ 40 µM; in assay [29], > 40 µM; in assay [30], 20 µM (≈ 27.1 µg/mL).

On to `CC(C)C[C@H](NC(=O)[C@H](CC(C)C)NC(=O)[C@H](CO)NC(=O)[C@H](CCC(N)=O)NC(=O)[C@@H](NC(=O)[C@@H](NC(=O)[C@H](CCCCN)NC(=O)[C@@H]1CCCN1C(=O)[C@H](CC(=O)O)NC(=O)[C@@H](N)CC(C)C)C(C)C)C(C)C)C(N)=O` [LDPKVVQSLL], for which the minimal inhibitory concentration (MIC) in [31] was ≥ 200 µM; in assay [32] it was ≥ 200 µM; in [30], > 200 µM; in assay [33] it was ≥ 200 µM.

Take `CC(C)C[C@H](NC(=O)[C@H](CC(C)C)NC(=O)[C@H](CCCCN)NC(=O)[C@H](CO)NC(=O)[C@H](CC(C)C)NC(=O)[C@H](C)NC(=O)[C@H](CCCCN)NC(=O)[C@H](Cc1c[nH]c2ccccc12)NC(=O)[C@H](CC(C)C)NC(=O)[C@H](C)NC(=O)CNC(=O)[C@H](CC(C)C)NC(=O)[C@@H](N)Cc1ccccc1)C(=O)O` [FLGALWKALSKLL]: the MIC in assay [5] is ≥ 64 µM; in assay [13] it was 4 µM (≈ 5.84 µg/mL); in [6] it was ≥ 64 µM; in [7], 4 µM (≈ 5.84 µg/mL); in assay [8], ≥ 64 µM; in assay [9] it was 2 µM (≈ 2.92 µg/mL). Moreover, the MIC in assay [10] stood at 4 µM (≈ 5.84 µg/mL).

In the case of `CC(C)C[C@H](NC(=O)[C@H](CCCCN)NC(=O)[C@H](CCC(N)=O)NC(=O)[C@@H](NC(=O)[C@@H](NC(=O)[C@H](CC(N)=O)NC(=O)[C@H](C)NC(=O)[C@@H](NC(=O)[C@@H](N)CCCCN)C(C)C)[C@@H](C)O)C(C)C)C(=O)N[C@@H](CCCCN)C(=O)N[C@@H](CCCN=C(N)N)C(=O)N[C@@H](CCCCN)C(=O)N[C@@H](C)C(=O)N[C@@H](CCCCN)C(=O)N[C@@H](CC(N)=O)C(=O)N[C@@H](C)C(=O)N[C@H](C(=O)N[C@@H](C)C(=O)O)C(C)C` [KVANTVQKLKRKAKNAVA], the minimal inhibitory concentration (MIC) in assay [34] was 12.5 µM (≈ 24.6 µg/mL); in [35], ≥ 50 µM; in assay [36], ≥ 50 µM; in assay [37], ≥ 50 µM; in assay [38], ≥ 50 µM; in assay [29], > 50 µM. For the same compound, the MIC in assay [39] was ≥ 50 µM.
